Laboratory results reported in patent US11312727B1, “Macrocyclic flu endonuclease inhibitors” (Janssen BioPharma, Inc., priority 2018, dated 2022).
pEC50: −log10 of the molar value.

Key:
[1] = test system: Influenza strain A549 A/WSN/33 (H1N1); experiment: microbe, parasite or virus in culture; format: cell-based; conditions: Influenza A virus, A549, 20 h, A549 cells, influenza A/WSN/33 (H1N1), 20 hours incubation; read-out: A549_A(H1N1) EC50
[2] = in vitro; conditions: human, CC50, uninfected A549 cells, CellTiter-Glo

| Structure (SMILES) | pEC50 [1] | CC50 [2] |
| --- | --- | --- |
| O=C1c2c(O)c(=O)ccn2N2CN1C1(/C=C/COc3c(F)cccc3[C@H]2c2ccccc2)CCC1 (single isomer, unassigned) [Compound 145A, (18′*R,E)-4′-fluoro-12′-hydroxy-18′-phenyl-6′H,18′H-spiro[cyclobutane-1,9′-[10,17]methanobenzo[b]pyrido[1,2-f][1]oxa[5,6,9]triazacyclotridecine]-11′,13′-dione] | 8.51 | > 100 nM |
| O=C1c2c(O)c(=O)ccn2N2CN1CC/C=C/COc1cccc3c1[C@H]2c1ccccc1SC3 (single isomer, unassigned) [Compound 37D, (1*S,13E)-7-hydroxy-16-oxa-23-thia-2,3,10-triazahexacyclo[15.12.1.12,10.03,8.021,30.024,29]hentriaconta-4,7,13,17,19,21(30),24(29),25,27-nonaene-6,9-dione] | 9.00 | > 200 nM |
| O=C1c2c(O)c(=O)ccn2N2CN1C/C=C/CCc1cc(F)c(F)cc1[C@@H]2c1ccccn1 (single isomer, unassigned) [Compound 58A, (16*R,E)-13,14-difluoro-4-hydroxy-16-(pyridin-2-yl)-7,10,11,16-tetrahydro-6,17-methanobenzo[k]pyrido[1,2-b][1,2,5]triazacyclotridecine-3,5-dione] | 7.36 | > 2000 nM |
| CC[C@H]1/C=C\COc2cc(F)c(F)c3c2[C@H](c2ccccc2SC3)N2CN1C(=O)c1c(O)c(=O)ccn12 (single isomer, unassigned) [Compound 126AA, (13*S,21a*R,Z)-13-ethyl-24,25-difluoro-16-hydroxy-6,10,13,21a-tetrahydro-7,8-(epiprop[1]en[1]yl[3]ylidene)-14,21-methanobenzo[6,7]thiepino[4,5-c]pyrido[1,2-f][1]oxa[5,6,9]triazacyclotridecine-15,17-dione] | < 7.00 | > 200 nM |
| O=C1c2c(O)c(=O)ccn2N2CN1C/C=C\COc1c(ccc(F)c1F)[C@@H]2c1ccccc1 (single isomer, unassigned) [Compound 74B, (18*S,Z)-3,4-difluoro-12-hydroxy-18-phenyl-6,9-dihydro-18H-10,17-methanobenzo[b]pyrido[1,2-f][1]oxa[5,6,9]triazacyclotridecine-11,13-dione] | 8.70 | > 200 nM |
| O=C1c2c(O)c(=O)ccn2N2CN1CCCCCc1ccccc1C2c1ccccc1 (stereo not drawn) [Compound 4, 4-hydroxy-16-phenyl-7,8,9,10,11,16-hexahydro-6,17-methanobenzo[k]pyrido[1,2-b][1,2,5]triazacyclotridecine-3,5-dione] | 7.32 | > 4000 nM |
| O=C1c2c(O)c(=O)ccn2N2CN1CCCCOc1ccc(F)cc1[C@@H]2c1ccccc1 (single isomer, unassigned) [Compound 30B, (18*S)-2-fluoro-12-hydroxy-18-phenyl-6,7,8,9-tetrahydro-18H-10,17-methanobenzo[b]pyrido[1,2-f][1]oxa[5,6,9]triazacyclotridecine-11,13-dione] | 7.82 | > 2000 nM |
| CC[C@@H]1/C=C/COc2c(Cl)cccc2[C@@H](c2ccccc2)N2CN1C(=O)c1c(O)c(=O)ccn12 (single isomer, unassigned) [Compound 98BB, (9*R,18*R,E)-4-chloro-9-ethyl-12-hydroxy-18-phenyl-6,9-dihydro-18H-10,17-methanobenzo[b]pyrido[1,2-f][1]oxa[5,6,9]triazacyclotridecine-11,13-dione] | 8.68 | > 1000 nM |
| O=C1c2c(O)c(=O)ccn2N2CN1C1(/C=C/COc3cc(F)c(F)c4c3[C@@H]2c2ncccc2SC4)CCC1 (single isomer, unassigned) [Compound 168A, (21a′*R,*E)-24′,25′-difluoro-16′-hydroxy-6′,21a′-dihydro-10′H-spiro[cyclobutane-1,13′-[7,8](epiprop[1]en[1]yl[3]ylidene)[14,21]methanopyrido[1,2-f]pyrido[2′,3′:6,7]thiepino[4,5-c][1]oxa[5,6,9]triazacyclotridecine]-15′,17′-dione] | < 7.30 | > 100 nM |
| O=C1c2c(O)c(=O)ccn2N2CN1C/C=C\COc1ccc(F)cc1[C@@H]2c1cccc(F)c1 (single isomer, unassigned) [Compound 25B, (18*S,Z)-2-fluoro-18-(3-fluorophenyl)-12-hydroxy-6,9-dihydro-18H-10,17-methanobenzo[b]pyrido[1,2-f][1]oxa[5,6,9]triazacyclotridecine-11,13-dione] | 7.96 | > 2000 nM |
| O=C1c2c(O)c(=O)ccn2N2CN1C1(/C=C/COc3cc(F)c(F)c4c3[C@H]2c2ccccc2SC4)CCC1 (single isomer, unassigned) [Compound 159B, (17a′*S,*E)-24′,25′-difluoro-12′-hydroxy-2′,17a′-dihydro-6′H-spiro[cyclobutane-1,9′-[3,4](epiprop[1]en[1]yl[3]ylidene)[10,17]methanobenzo[6,7]thiepino[4,5-c]pyrido[1,2-f][1]oxa[5,6,9]triazacyclotridecine]-11′,13′-dione] | 9.72 | > 100 nM |
| C[C@@H]1/C=C/COc2cc(F)c(F)c3c2[C@H](c2ccccc2SC3)N2CN1C(=O)c1c(O)c(=O)ccn12 (single isomer, unassigned) [Compound 162A, (9*R,17a*R,*E)-24,25-difluoro-12-hydroxy-9-methyl-2,6,9,17a-tetrahydro-3,4-(epiprop[1]en[1]yl[3]ylidene)-10,17-methanobenzo[6,7]thiepino[4,5-c]pyrido[1,2-f][1]oxa[5,6,9]triazacyclotridecine-11,13-dione] | < 7.30 | > 100 nM |
| O=C1c2c(O)c(=O)ccn2N2CN1CC/C=C\CCOc1ccccc1[C@H]2c1ccccc1 (single isomer, unassigned) [Compound 65C, (2*R,*E)-15-hydroxy-2-phenyl-12,13,14,16-tetrahydro-11H-4-oxa-1(1,3)-pyrido[2,1-f][1,2,4]triazina-3(1,2)-benzenacyclodecaphan-7-ene-14,16-dione] | 5.10 | > 20000 nM |
| C[C@H]1/C=C\COc2cc(F)c(F)c3c2C(c2ccccc2SC3)N2CN1C(=O)c1c(O)c(=O)ccn12 (single isomer, unassigned) [Compound 162D, (13*S,21a*S,*Z)-24,25-difluoro-16-hydroxy-13-methyl-6,10,13,21a-tetrahydro-7,8-(epiprop[1]en[1]yl[3]ylidene)-14,21-methanobenzo[6,7]thiepino[4,5-c]pyrido[1,2-f][1]oxa[5,6,9]triazacyclotridecine-15,17-dione] | 9.29 | > 100 nM |
| O=C1c2c(O)c(=O)ccn2N2CN1CCCCOc1c(F)cccc1[C@H]2c1ccccc1 (single isomer, unassigned) [Compound 114A, (18*R)-4-fluoro-12-hydroxy-18-phenyl-6,7,8,9-tetrahydro-18H-10,17-methanobenzo[b]pyrido[1,2-f][1]oxa[5,6,9]triazacyclotridecine-11,13-dione] | 8.15 | > 200 nM |
| O=C1c2c(O)c(=O)ccn2N2CN1C1(/C=C/COc3ccccc3[C@H]2c2ccccc2)CC1 [Compound 79B, (18′R,E)-12′-hydroxy-18′-phenyl-6′H,18′H-spiro[cyclopropane-1,9′-[10,17]methanobenzo[b]pyrido[1,2-f][1]oxa[5,6,9]triazacyclotridecine]-11′,13′-dione] | 8.22 | > 1000 nM |
| Cc1ccccc1C1c2ccc(F)c(F)c2OC/C=C\CN2CN1n1ccc(=O)c(O)c1C2=O (single isomer, unassigned) [Compound 155B, (18*S,*Z)-3,4-difluoro-12-hydroxy-18-(o-tolyl)-6,9-dihydro-18H-10,17-methanobenzo[b]pyrido[1,2-f][1]oxa[5,6,9]triazacyclotridecine-11,13-dione] | < 7.30 | > 100 nM |
| O=C1c2c(O)c(=O)ccn2N2CN1C/C=C\COc1ccccc1C2c1ccccc1 (stereo not drawn) [Compound 5] | 7.59 | > 2000 nM |
| COC[C@H]1/C=C/COc2c(ccc(F)c2F)[C@@H](c2ccccc2)N2CN1C(=O)c1c(O)c(=O)ccn12 (single isomer, unassigned) [Compound 153BB, (9*R,18*R,*E)-3,4-difluoro-12-hydroxy-9-(methoxymethyl)-18-phenyl-6,9-dihydro-18H-10,17-methanobenzo[b]pyrido[1,2-f][1]oxa[5,6,9]triazacyclotridecine-11,13-dione] | 8.59 | > 100 nM |
| CC(C)c1ccccc1[C@H]1c2ccc(F)c(F)c2OC/C=C\CN2CN1n1ccc(=O)c(O)c1C2=O (single isomer, unassigned) [Compound 158A, (18*S,*Z)-3,4-difluoro-12-hydroxy-18-(2-isopropylphenyl)-6,9-dihydro-18H-10,17-methanobenzo[b]pyrido[1,2-f][1]oxa[5,6,9]triazacyclotridecine-11,13-dione] | < 7.30 | > 100 nM |
| O=C1c2c(O)c(=O)ccn2N2CN1C[C@@H]1C[C@H]1COc1c(ccc(F)c1F)[C@H]2c1ccccc1 (single isomer, unassigned) [Compound 139BB, (1a*R,8*R,17a*R)-4,5-difluoro-14-hydroxy-8-phenyl-1a,2,17,17a-tetrahydro-1H,8H-9,16-methanobenzo[b]cyclopropa[k]pyrido[1,2-f][1]oxa[5,6,9]triazacyclotridecine-13,15-dione] | < 7.60 | > 50 nM |
| O=C1c2c(O)c(=O)ccn2N2CN1C[C@H]1C[C@@H](COc3cccc4c3[C@@H]2c2ccccc2SC4)C1 (single isomer, unassigned) [Compound 161A] | < 7.30 | > 100 nM |
| O=C1c2c(O)c(=O)ccn2N2CN1CC/C=C\COc1cccc3c1[C@@H]2c1ccccc1CC3 (single isomer, unassigned) [Compound 28B] | 8.22 | > 400 nM |
| CC[C@@H]1/C=C/COc2cc(F)ccc2[C@H](c2ccccc2)N2CN1C(=O)c1c(O)c(=O)ccn12 (single isomer, unassigned) [Compound 89BB, (9*R,18*S,E)-9-ethyl-3-fluoro-12-hydroxy-18-phenyl-6,9-dihydro-18H-10,17-methanobenzo[b]pyrido[1,2-f][1]oxa[5,6,9]triazacyclotridecine-11,13-dione] | 8.52 | > 200 nM |
